This note sets out measurements from patent US12624018B1, “Inhibitors of RIPK2 and medical uses thereof” (Odyssey Therapeutics, Inc., priority 2022, dated 2026).

For this test, the target named is T1, RIPK2 enzyme (Homo sapiens, UniProt O43353).
T1 construct: purchased Carna 09-128
T1 sequence (O43353 1-299 limits assumed): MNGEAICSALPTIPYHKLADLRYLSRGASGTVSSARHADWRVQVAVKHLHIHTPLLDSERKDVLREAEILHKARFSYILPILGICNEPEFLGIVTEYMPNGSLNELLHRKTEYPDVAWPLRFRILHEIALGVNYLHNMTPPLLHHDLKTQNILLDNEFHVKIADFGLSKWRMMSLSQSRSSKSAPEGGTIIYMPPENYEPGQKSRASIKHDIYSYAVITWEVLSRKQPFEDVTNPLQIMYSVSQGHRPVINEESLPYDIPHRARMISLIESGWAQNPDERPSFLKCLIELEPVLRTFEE
The experiment in a line: RIPK2 inhibition (ADP-Glo Kinase Assay). The format is biochemical. Conditions: RIPK2 5 nM, ATP 150 μM, MBP substrate, read-out: RIPK2 IC50. Here is the method: RIPK2 inhibition was measured as follows:
The V9102 ADP-Glo Kinase Assay (including ultrapure ATP, 10 mM) was purchased from Promega. Native swine MBP was used as the substrate for the reaction and was purchased from SignalChem Biotech (catalogue number M42-51N). Assay buffer used for the assay consisted of the following components: MgCl2 (final concentration of 10 mM), Brij-35 (0.01%), DTT (final concentration of 2 mM), BSA (0.05%), EGTA (final concentration of 1 mM), and HEPE (pH 7.5 at final concentration of 50 mM).
Method: In a 384 well plate, 10 nL of test compound was dispensed using Echo550 and mixed with RIPK2 enzyme (final concentration of 5 nM) in assay buffer for 30 minutes at room temperature. […] Then ADP-Glo reagent was added and incubated for 60 min at room temperature. Last, Kinase Detection Reagent was added to the mixture and incubated for 60 min. The resulting luminescent signal was measured with an Envision reader to determine the amount of ADP produced. All plates contained vehicle controls (10 nL DMSO only) as a reference for the high control (0% kinase inhibition), and wells with no RIPK2 enzyme as reference for low control (100% kinase inhibition). Data were analyzed to determine the percent inhibition of ADP production in the presence of test compound using both low and high controls.
As to `Cc1cc(CC(=O)Nc2cnn(C(C)(C)C)c2)ccc1Oc1ccnc2ccc(OC3CCNCC3C)cc12` (racemic) [Compound 187], the IC50 is under 2.5 nM.
Consider `Cc1cc(CC(=O)Nc2cnn(C(C)(C)C)c2)ccc1Oc1ccnc2ccc(OC3CCNCC3C)cc12` (racemic) [Compound 188, N-(1-(tert-butyl)-1H-pyrazol-4-yl)-2-(3-methyl-4-((6-((-3-methyl-piperidin-4-yl)oxy)quinolin-4-yl)oxy)phenyl) acetamide], for which the IC50 is under 2.5 nM.
As for `Cc1cc(CC(=O)Nc2cnn(C(C)(C)C)c2)ccc1Oc1ccnc2ccc(OC3CCNCC3O)cc12` (racemic) [Compound 189, N-(1-(tert-butyl)-1H-pyrazol-4-yl)-2-(4-((6-((-3-hydroxy-piperidin-4-yl)oxy)quinolin-4-yl)oxy)-3-methylphenyl) acetamide], the figure is under 2.5 nM; as for `Cc1cc(CC(=O)Nc2cnn(C(C)(C)C)c2)ccc1Oc1ccnc2ccc(OC3CCNC(C)C3)cc12` (racemic) [Compound 220, N-(1-(tert-butyl)-1H-pyrazol-4-yl)-2-(3-methyl-4-((6-((-2-methyl-piperidin-4-yl)oxy)quinolin-4-yl)oxy)phenyl) acetamide], under 2.5 nM; as for `Cc1cc(CC(=O)Nc2cnn(C(C)(C)C)c2)ccc1Oc1ccnc2ccc(OC3CCNC(C)C3)cc12` (racemic) [Compound 221, N-(1-(tert-butyl)-1H-pyrazol-4-yl)-2-(3-methyl-4-((6-((-2-methyl-piperidin-4-yl)oxy)quinolin-4-yl)oxy)phenyl) acetamide], under 2.5 nM.
To `Cc1cc(CC(=O)Nc2cnn(C(C)(C)C)c2)ccc1Oc1ccnc2ccc(OC3CCNCC3F)cc12` (racemic) [Compound 237, N-(1-(tert-butyl)-1H-pyrazol-4-yl)-2-(4-((6-((-3-fluoro-piperidin-4-yl)oxy)quinolin-4-yl)oxy)-3-methylphenyl) acetamide] belongs under 2.5 nM; to `Cc1cc(CC(=O)Nc2cnn(C(C)(C)C)c2)ccc1Oc1ccnc2ccc(OC3CCNCC3F)cc12` (racemic) [Compound 238, N-(1-(tert-butyl)-1H-pyrazol-4-yl)-2-(4-((6-((-3-fluoro-piperidin-4-yl)oxy)quinolin-4-yl)oxy)-3-methylphenyl) acetamide], under 2.5 nM; to `COc1ccc2ncnc(Oc3cnc(C(C)C(=O)Nc4cnn(C(C)(C)C)c4)c(F)c3)c2c1` (single isomer, unassigned) [Compound 11, N-(1-(tert-butyl)-1H-pyrazol-4-yl)-2-(3-fluoro-5-((6-methoxyquinazolin-4-yl)oxy)pyridin-2-yl)propanamide], 70.7 nM.
Turning to `CC(C)(C)n1cc(NC(=O)Cc2ccc(Oc3ccnc4ccc(S(C)(=N)=O)cc34)cc2F)cn1` (single isomer, unassigned) [Compound 69, N-(1-(tert-butyl)-1H-pyrazol-4-yl)-2-(2-fluoro-4-((6-(S-methylsulfonimidoyl)quinolin-4-yl)oxy)phenyl)acetamide], the IC50 is 6.9 nM.
As for `CC(C)(C)n1cc(NC(=O)Cc2ccc(Oc3ccnc4ccc(S(C)(=N)=O)cc34)cc2F)cn1` (single isomer, unassigned) [Compound 70, N-(1-(tert-butyl)-1H-pyrazol-4-yl)-2-(2-fluoro-4-((6-(S-methylsulfonimidoyl)quinolin-4-yl)oxy)phenyl)acetamide], the figure is 5.1 nM.
As for `CN(C)C1CCN(c2ccc3nccc(Oc4cnc(CC(=O)Nc5cnn(C(C)(C)C)c5)c(F)c4)c3c2)C1` (single isomer, unassigned) [Compound 140, N-(1-(tert-butyl)-1H-pyrazol-4-yl)-2-(5-((6-(3-(dimethylamino)pyrrolidin-1-yl)quinolin-4-yl)oxy)-3-fluoropyridin-2-yl)acetamide], the IC50 came to 7.4 nM.
